Test system: Foreskin fibroblasts
Test: VEGF production by cultured fibroblasts, ELISA of culture media
Type: cell-based
Conditions: media after 24 hours of culture
Description: (§1) Foreskin fibroblasts purchased from ATCC where cultured in T-75 flasks using Fibroblast Basal Media from ATCC. When cells reached 75% confluence, exposure to: a) Normoxia; b) hypoxia (2% oxygen for 4 hours); c) carbon monoxide (250 ppm) for 4 hours; or d) hypoxia followed by carbon monoxide. Cells were re-plated on 96 well plates, flat bottomed, by trypsinization. Concentration of re-plated cells was 0, 10,000, 20,000 and 40,000 cells per well. Culture media was extracted after 24 hours of culture and analyzed for VEGF production using ELISA (R&D Systems). […] No VEGF production was observed from Normoxic Control fibroblasts.
as §1, with “simultaneously as” for “followed by”, “monoxide” for “monoxide.”, “replated” for “re-plated”

In the case of `[C-]#[O+]` [carbon monoxide], the VEGF production (hypoxia (2% oxygen for 4 hours) followed by carbon monoxide (250 ppm, 4 hours), FIG. 1) is reported as “synergistic increase” and the VEGF production (hypoxia (2% oxygen for 4 hours) simultaneously as carbon monoxide (250 ppm), FIG. 2) is reported as “synergistic increase”.

Source: patent US11959102B2, “Augmentation of fibroblast regenerative activity” (Figene, LLC, priority 2017, dated 2024)
